# Measurements taken from patent publication US20110245190A1, “METHOD FOR IMPROVING POST SURGERY VISUAL ACUITY OUTCOME WITH AZITHROMYCIN” (priority 2009, published 2011).
# System: patients with contact lens-related dry eye disease (CLDE)
# Test: Study of azithromycin 1% ophthalmic solution vs rewetting drops over four weeks in contact lens-related dry eye disease (Example 2)
# Type: in vivo, human
# Text: The objective of this study is to compare the efficacy of study drug, AZASITE® (azithromycin ophthalmic solution) 1%, versus rewetting drops (Visine for Contacts™) over a four week treatment period in patients with contact lens-related dry eye disease (CLDE).
# Subjects are 18 years of age or older. Subjects have a positive diagnosis of CLDE based on their responses to the Contact Lens Dry Eye Questionnaire (CLDEQ, Nichols et al, Cornea 21:469-75 (2002)) and a score of ≧2, (i.e., moderate severity on a 0-4 scale, where 0=no ocular dryness and 4=very severe ocular dryness) on a self-reported assessment of ocular dryness at the screening Visit. A total of 50 subjects are enrolled in the study.
# Subjects were asked to rate their level of ocular dryness on a 0-4 scale. Tear osmolarity was then assessed for each eye using the TearLab Osmolarity System®. Subjects were then instructed to remove their contact lenses and slit-lamp biomicroscopy and external eye exams were performed. Fluorescein corneal staining was then performed on each eye (5 μl of 2% fluorescein applied to the ocular surface) and graded according to National Eye Institute (NEI) criteria.
# Eligible subjects were then randomized to receive either azithromycin 1% ophthalmic solution (AzaSite®), or rewetting drops (Visine for Contacts™) in a 1:1 ratio and they were not masked as to the treatment assignment. Subjects randomized to azithromcyin 1% were instructed to administer one drop to each eye BID for the first two days and then one drop QD for days 3-29. Subjects randomized to rewetting drops were instructed to administer one to two drops QID throughout the 29 day treatment period. The first dose of study medication was self-administered at the clinic once dosing instructions were provided. […]
# Concomitant medication usage was recorded, an AE query performed, study medication and diary cards were collected. Subjects underwent habitual HCVA and LCVA assessment, completed the CLDEQ, and had tear osmolarity readings measured prior to removing their contact lenses. […]
compound,measurement,setting,value
CC[C@H]1OC(=O)[C@H](C)[C@@H](O[C@H]2C[C@@](C)(OC)[C@@H](O)[C@H](C)O2)[C@H](C)[C@@H](O[C@@H]2O[C@H](C)C[C@H](N(C)C)[C@H]2O)[C@](C)(O)C[C@@H](C)CN(C)[C@H](C)[C@@H](O)[C@]1(C)O [azithromycin],"mean ocular dryness scores, AM assessment","FIG. 2, prior to instilling study medication",lower
same,"mean ocular dryness scores, PM assessment","FIG. 3, prior to lens removal",lower
same,mean daily duration of comfortable contact lens wear time,"each of the weekly endpoints (Weeks 1-4), FIG. 1",longer
